From patent EP0491061A1, “Use of enalapril and perindopril as prolactin-lowering medicament” (Weth, Gosbert Dr. med., Dr. rer. nat., priority 1990, dated 1992)
Entries after “also recorded” stand apart in the source; their conditions may differ.

Legend:
Prolaktin = assay: Plasma prolactin determination by radioimmunoassay (method of Hwang et al.) in patients after dosing; assay type: in vivo, Patienten; settings: for Prolaktinsenkung: average weight 60 kg
Dopamin = assay: Plasma dopamine determination (method of Weth) in patients with circulatory disorders after dosing; assay type: in vivo, Patienten; settings: for Dopamin MW: mean of 12 patients
Description: Die durch die erfindungsgemäß verwendeten N-(Aminoacyl)-aminosäuren erhöhte Freisetzung von Dopamin bei gleichzeitiger Senkung des Prolaktins konnte durch pharmakologische Tests veranschaulicht und bewiesen werden. Die Dopaminbestimmung wurde nach G. Weth, "Das Verhalten der Neurotransmitter....", Dissertation, Würzburg, 1987, S. 123-138, durchgeführt. Die Bestimmung von Prolaktin wurde radioimmunologisch nach den Methoden von P. Hwang, H. Guyda, H. Friesen, Proc. Nat. Sci. (USA) 1971,68-8, S.1902-06 durchgeführt.
Für die Untersuchungen wurden 2x12 Patienten (Alter 75±10 Jahre) herangezogen, die unter Durchblutungsstörungen, sowohl peripheren als auch zentralen, litten. Bei diesen Patienten wurden sowohl vor der Gabe von Enalaprilhydrogenmaleat, als auch 15, 30, 60, und 120 Minuten nach der Gabe von Enalaprilhydrogenmaleat Dopamin und Prolaktin bestimmt.
Die Patienten bekamen sublingual […] Enalaprilhydrogenmaleat verabreicht (RR zwischen 100/70 und 170/110; MW 130/90 mm Hg).
Die Bestimmung der Dopamin- und Prolaktinwerte wurde wie folgt vorgenommen. In Zeitabschnitten von 15, 30, 60 und 120 Minuten wurden dem Patienten je 5 ml Blut entnommen und in speziell präparierten Vakuum-Behältern, die Glutathion und EDTA enthielten gegeben. Das Blut wird sofort auf 2°C abgekühlt und bei 2°C zentrifugiert. Das überstehende Blutplasma wurde bis zur Dopamin- und Prolaktinbestimmung bei minus 80 °C tiefgefroren.
Die Dimensionsangaben betragen für Dopamin pg/ml bzw. ng/l und für Prolaktin ng/ml.

## CCC[C@H](N[C@@H](C)C(=O)N1[C@H](C(=O)O)C[C@@H]2CCCC[C@@H]21)C(=O)OCC [Perindopril]
Prolaktin; 30 min after 20 mg Perindopril oral, mean of 12 patients (average weight 60 kg)
  Prolaktin MW: 12,3 pg/ml
Prolaktin; Fig. 3, 30 min after 20 mg oral
  Prolaktin im Blutplasma: 12 ng/mL
Prolaktin; Fig. 3, 90 min after 20 mg oral
  Prolaktin im Blutplasma: 7 ng/mL
Prolaktin; Fig. 3, before 20 mg oral, blood plasma
  Anfangskonzentration Prolaktin: 15 ng/mL

## CCOC(=O)[C@H](CCc1ccccc1)N[C@@H](C)C(=O)N1CCC[C@H]1C(=O)O [Enalaprilhydrogenmaleat]
Dopamin; 15 min after 20 mg Enalaprilhydrogenmaleat, plasma
  Dopamin MW: 143 pg/mL
Dopamin; 30 min after 20 mg Enalaprilhydrogenmaleat, plasma
  Dopamin MW: 188 pg/mL
Dopamin; 60 min after 20 mg Enalaprilhydrogenmaleat, plasma
  Dopamin MW: 253 pg/mL
Dopamin; 90 min after 20 mg Enalaprilhydrogenmaleat, plasma
  Dopamin MW: 230 pg/mL
Dopamin; 120 min after 20 mg Enalaprilhydrogenmaleat, plasma
  Dopamin MW: 182 pg/mL
Dopamin; Fig. 1, 20 mg sublingual, average weight 60 kg, plasma
  Höhepunkt des Dopaminanstiegs (time): 60 min
Dopamin; in words, 15 min after sublingual dosing
  Anstieg des Dopamins: hochsignifikanten Anstieg; also recorded: signifikanten Anstieg
Dopamin; time 0 (before dosing), 20 mg Enalaprilhydrogenmaleat, plasma
  Dopamin MW: 105 pg/mL
Prolaktin; 15 min after 20 mg Enalaprilhydrogenmaleat, plasma, mean of 12 patients
  Prolaktin MW: 15,4 ng/ml
Prolaktin; 30 min after 20 mg Enalaprilhydrogenmaleat, plasma, mean of 12 patients
  Prolaktin MW: 14,3 ng/ml
Prolaktin; 60 min after 20 mg Enalaprilhydrogenmaleat, plasma, mean of 12 patients
  Prolaktin MW: 11,9 ng/ml
Prolaktin; 90 min after 20 mg Enalaprilhydrogenmaleat, plasma, mean of 12 patients
  Prolaktin MW: 10,8 ng/ml
Prolaktin; 120 min after 20 mg Enalaprilhydrogenmaleat, plasma, mean of 12 patients
  Prolaktin MW: 10,2 ng/ml
Prolaktin; in words, 30 min after sublingual dosing
  Senkung des Prolaktins: deutlichen Senkung
Prolaktin; in words, Fig. 2, 30 min after 20 mg oral
  Prolaktinsenkung: signifikante
Prolaktin; in words, Fig. 2, 60 min after 20 mg oral
  Prolaktinsenkung: hochsignifikante Prolaktinsenkung
Prolaktin; in words, after 25 mg (so in the source)
  Abfall von Prolaktin: signifikanten Abfall
Prolaktin; time 0 (before dosing), 20 mg Enalaprilhydrogenmaleat, plasma, mean of 12 patients
  Prolaktin MW: 16,2 ng/ml
